From US7951827B2, “Synthesis and antiprotozoal activity of dicationic 3,5-diphenylisoxazoles” (The University of North Carolina at Chapel Hill, priority 2005, dated 2011)
Structures can show the parent of a compound that is named as a salt. Where two headings read alike, the source gives them in different places.

Columns and labels:
[1] = Cytotoxicity to VERO cells; type: cell-based, African green monkey (Cercopithecus Aethiops); details: African green monkey (Cercopithecus aethiops)
Procedure: (§1) In vitro antiprotozoal activities, see Ismail, M. A., et al., J. Med. Chem. 46, 4761-4769 (2003), and cytotoxicity were measured following established protocols, see Balz, T., et al., EMBO J., 4, 1273-1277 (1985); Räz. B., et al., Acta Trop., 68:139-147 (1997); and Sperandeo, N. R. et al., Chem. Biochem., 4, 69-73 (2003). […] Other positive controls employed were melarsoprol (against T. brucei), chloroquine, and artemisinin (against P. falciparum), and podophyllotoxin (against VERO cells).

[2] = tested on: Trypanosoma brucei brucei; experiment: In vitro antiprotozoal activity against Trypanosoma brucei brucei; type: cell-based
Procedure: as §1

Plasmodium falciparum = experiment: In vitro antiprotozoal activity against Plasmodium falciparum; type: cell-based
Procedure: as §1

VERO cells = experiment: Cytotoxicity to VERO cells; type: cell-based, African green monkey (Cercopithecus Aethiops)
Procedure: as §1

[3] = IC50 (μM) Cytotoxicity VERO cells
[4] = Trypanosoma brucei, Table 1, read-out: IC50 (μM) Trypanosoma brucei brucei
[5] = Plasmodium falciparum, Table 1, read-out: IC50 (μM) Plasmodium falciparum
[6] = Plasmodium falciparum, read-out: antiplasmodial IC50 values (P. falciparum)
[7] = Trypanosoma brucei, read-out: IC50 values against T. brucei brucei
[8] = Table 1, read-out: IC50 (μM) Cytotoxicity VERO cells
[9] = Table 1, read-out: IC50 (μM) Trypanosoma brucei brucei
[10] = Table 1, read-out: IC50 (μM) Plasmodium falciparum

Compound | IC50 [1, 3] | IC50 [2, 4] | IC50 (Plasmodium falciparum; [5]) | IC50 (Plasmodium falciparum; [6]) | melting point | also measured
Cl.Cl.N=C(N)c1ccc(-c2cc(-c3cc(C(=N)N)ccc3Cl)no2)cc1 [Compound 20, 3-(5-Amidino-2-chlorophenyl)-5-(4-amidinophenyl)isoxazole dihydrochloride] | 5.67 µM | 0.0212 µM | 0.0071 µM | < 0.008 µM | 348 °C | –
Cl.Cl.N=C(N)c1ccc(-c2cc(-c3cccc(C(=N)N)c3)on2)cc1 [Compound 22, 3-(4-Amidinophenyl)-5-(3-amidinophenyl)isoxazole di hydrochloride] | 31.2 µM | 0.0035 µM | 0.0025 µM | – | 336 to 338 °C | IC50 [2, 7]: 0.0035 to 0.009 µM
c1cc(C2=NCCN2)cc(-c2cc(-c3ccc(C4=NCCN4)cc3)no2)c1 [Compound 24, 3-[4-(2-Imidazolinyl)phenyl]-5-[3-(2-imidazolinyl)phenyl]isoxazole dihydrochloride] | – | – | – | – | – | IC50 (VERO cells; [8]): 30.2 µM; IC50 [2, 9]: 0.974 µM; IC50 (Plasmodium falciparum; [10]): 0.077 µM
Cl.Cl.N=C(N)c1ccc(-c2cc(-c3cc(C(=N)N)ccc3Cl)on2)cc1 [Compound 25, 5-(5-Amidino-2-chlorophenyl)-3-(4-amidinophenyl)isoxazole dihydrochloride] | 71.4 µM | 0.0209 µM | 0.0035 µM | < 0.008 µM | 356 to 358 °C (dec.) | –
COc1ccc(C(=N)N)cc1-c1cc(-c2ccc(C(=N)N)cc2)no1.Cl.Cl [Compound 26, 5-(5-Amidino-2-methoxyphenyl)-3-(4-amidinophenyl)isoxazole dihydrochloride] | 52.8 µM | 0.0043 µM | 0.0116 µM | 0.008 to 0.03 µM | 240 to 242 °C | IC50 [2, 7]: 0.0035 to 0.009 µM
Cl.Cl.N=C(N)c1cccc(-c2cc(-c3ccc(C(=N)N)cc3Cl)no2)c1 [Compound 28, 3-(4-Amidino-2-chlorophenyl)-5-(3-amidinophenyl)isoxazole dihydrochloride] | 87.4 µM | 0.0116 µM | 0.0141 µM | 0.008 to 0.03 µM | 210 °C (dec.) | –
c1cc(C2=NCCN2)cc(-c2cc(-c3cccc(C4=NCCN4)c3)on2)c1 [Compound 34, 3,5-Bis[3-(2-imidazolinyl)phenyl]isoxazole dihydrochloride] | – | – | – | – | – | IC50 (VERO cells; [8]): 26.2 µM; IC50 [2, 9]: 18.5 µM; IC50 (Plasmodium falciparum; [10]): 0.227 µM
Cl.Cl.N=C(N)c1cccc(-c2cc(-c3cc(C(=N)N)ccc3[N+](=O)[O-])on2)c1 [Compound 35, 5-(5-Amidino-2-nitrophenyl)-3-(3-amidinophenyl)isoxazole dihydrochloride] | 9.8 µM | 1.63 µM | 0.334 µM | – | 222 °C (dec.) | –
N=C(N)c1cccc(-c2cc(-c3cc(C(=N)N)ccc3Cl)no2)c1 [Compound 39, 3-(5-Amidino-2-chlorophenyl)-5-(3-amidinophenyl)isoxazole dihydrochloride] | 55.5 µM | 0.0463 µM | 0.0306 µM | – | – | –
COc1ccc(C(=N)N)cc1-c1cc(-c2cccc(C(=N)N)c2)on1.Cl.Cl [Compound 40, 3-(5-Amidino-2-methoxyphenyl)-5-(3-amidinophenyl)isoxazole dihydrochloride] | 215 µM | 0.027 µM | 0.0174 µM | 0.008 to 0.03 µM | 210 °C (dec.) | –
COc1ccc(C(=N)N)cc1-c1cc(-c2cc(C(=N)N)ccc2OC)on1.Cl.Cl [Compound 41, 3,5-Bis(5-amidino-2-methoxyphenyl)isoxazole dihydrochloride] | 79.9 µM | 0.0042 µM | 0.0211 µM | 0.008 to 0.03 µM | 240 °C (dec.) | IC50 [2, 7]: 0.0035 to 0.009 µM
COc1ccc(C(=N)NC(C)C)cc1-c1cc(-c2cc(C(=N)NC(C)C)ccc2OC)on1.Cl.Cl [Compound 42, 3,5-Bis[5-(N-isopropyl)amidino-2-methoxyphenyl]isoxazole dihydrochloride] | 21.7 µM | 0.374 µM | 0.0932 µM | – | 185 °C (dec.) | –
COc1ccc(C2=NCCN2)cc1-c1cc(-c2cc(C3=NCCN3)ccc2OC)on1 [Compound 43, 3,5-Bis[5-(2-imidazolinyl)-2-methoxyphenyl]isoxazole dihydrochloride] | – | – | – | – | – | IC50 (VERO cells): 164 µM; IC50 [2, 9]: 0.0448 µM; IC50 (Plasmodium falciparum; [10]): 0.0114 µM
Nc1nc(N)nc(Nc2ccc([As]3SCC(CO)S3)cc2)n1 (centres unmarked) [Melarsoprol, reference compound] | – | – | – | – | – | IC50 ([2]; Trypanosoma brucei, read-out: IC50 (μM) Trypanosoma brucei brucei): 0.00637 µM
COc1cc([C@@H]2c3cc4c(cc3[C@H](O)[C@H]3COC(=O)[C@H]23)OCO4)cc(OC)c1OC [Podophyllotoxin, reference compound] | – | – | – | – | – | IC50 [1, 8]: 0.0186 µM
